{"source": "patent US8110565B2", "about": "“Enhanced drug delivery in transdermal systems” (Noven Pharmaceuticals, Inc., priority 2001, dated 2012)", "key": {"[1]": {"assay": "Flux of ramipril, its ester prodrugs and their combinations from carrier formulations (FIGS. 8, 9)", "format": "in vitro ADME", "source_text": "(§1) Prodrug effects on flux were also studied using an ace inhibitor drug, ramipril. Flux rates of two corresponding prodrugs—ramipril methyl ester and ramipril ethyl ester—were compared prior to combining with the parent drug. […] In either event, the use of an ester prodrug in place of the parent drug can achieve, at the very least, over a 10 fold increase in flux (see ramipril flux (▴) in FIG. 8—only 15% ramipril could be solubilized without forming crystals—versus ramipril ethyl ester flux without enhancers (Δ) in FIG. 9). Use of non-functional or hydroxy functional adhesives are also preferred. However, when both ramipril and a corresponding prodrug are combined in the formulations containing enhancers, an even higher flux can be obtained."}, "[2]": {"assay": "Amount of ramipril solubilized in the carrier formulation without forming crystals", "format": "physicochemical", "source_text": "as §1, with “preferred.” for “preferred. However, when both ramipril and a corresponding prodrug are combined in the formulations containing enhancers, an even higher flux can be obtained.”"}}, "data": [{"smiles": "CCOC(=O)C(CCc1ccccc1)NC(C)C(=O)N1C(C(=O)OCC)CC2CCCC21", "note": "(stereo not shown) [ramipril ethyl ester]", "values": [{"measurement": "increase in flux over the parent drug ramipril", "setting": "[1]; ester without enhancers (FIG. 9) versus 15% ramipril (FIG. 8)", "value": "> 10", "unit": "fold"}]}, {"smiles": "CCOC(=O)[C@H](CCc1ccccc1)N[C@@H](C)C(=O)N1[C@H](C(=O)OC)C[C@@H]2CCC[C@@H]21", "note": "[ramipril methyl ester]", "values": [{"measurement": "flux compared with the ethyl ester derivative", "setting": "[1]", "value": "fluxed higher"}, {"measurement": "flux higher than the ethyl ester prodrug", "setting": "[1]; without permeation enhancers, 20% drug, 20% polyacrylate adhesive, 60% polysiloxane adhesive, FIG. 9", "value": 73, "unit": "%"}]}, {"smiles": "CCOC(=O)[C@H](CCc1ccccc1)N[C@@H](C)C(=O)N1[C@H](C(=O)O)C[C@@H]2CCC[C@@H]21", "note": "[ramipril]", "values": [{"measurement": "ramipril that could be solubilized without forming crystals", "setting": "[2]", "value": 15, "unit": "%"}]}]}
